Test results reported in patent US20240246967A1, “AXL COMPOUNDS” (ARCUS BIOSCIENCES, INC., priority 2021, published 2024).

Columns and labels:
Axl [1] = biological target: T1, Axl (Homo sapiens, UniProt P30530); experiment: HTRF KinEASE-TK biochemical potency assay, AXL; design: purchased Invitrogen; conditions: 5 nM AXL, 700 μM ATP, 800 nM TK Substrate-biotin
T1 sequence (P30530 26-894): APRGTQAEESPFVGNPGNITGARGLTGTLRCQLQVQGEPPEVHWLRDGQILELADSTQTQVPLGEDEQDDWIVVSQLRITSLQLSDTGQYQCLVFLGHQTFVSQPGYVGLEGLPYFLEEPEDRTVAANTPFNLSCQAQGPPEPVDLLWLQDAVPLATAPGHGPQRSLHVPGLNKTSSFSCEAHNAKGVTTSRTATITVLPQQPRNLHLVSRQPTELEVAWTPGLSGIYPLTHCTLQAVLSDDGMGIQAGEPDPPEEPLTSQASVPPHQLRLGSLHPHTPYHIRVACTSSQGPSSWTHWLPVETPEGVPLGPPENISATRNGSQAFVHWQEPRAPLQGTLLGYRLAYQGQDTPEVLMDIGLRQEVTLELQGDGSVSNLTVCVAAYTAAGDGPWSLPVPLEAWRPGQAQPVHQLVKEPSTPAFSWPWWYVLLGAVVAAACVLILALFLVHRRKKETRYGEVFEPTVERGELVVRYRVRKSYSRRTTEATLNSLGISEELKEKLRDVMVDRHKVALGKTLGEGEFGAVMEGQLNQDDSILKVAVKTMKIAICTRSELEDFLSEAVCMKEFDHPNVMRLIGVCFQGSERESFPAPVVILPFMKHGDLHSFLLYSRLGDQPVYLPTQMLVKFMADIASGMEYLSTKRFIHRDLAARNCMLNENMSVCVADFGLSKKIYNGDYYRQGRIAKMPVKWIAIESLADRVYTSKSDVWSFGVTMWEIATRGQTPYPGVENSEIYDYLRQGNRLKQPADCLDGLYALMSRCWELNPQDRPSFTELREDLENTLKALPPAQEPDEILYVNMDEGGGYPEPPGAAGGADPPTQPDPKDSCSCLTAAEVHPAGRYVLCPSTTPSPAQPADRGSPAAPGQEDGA
Procedure: Purified recombinant human AXL, TYRO3 and MER proteins were purchased from Invitrogen™. 10 nM AXL, 2 nM TYRO3 or MER were incubated with varying concentrations of compounds in 50 mM HEPES, pH 7.4, 10 mM MgCl2, 0.01% BSA, 1 mM DTT and 2% DMSO in a total volume of 20 μl in a 384-well microplate (Corning™ #3640) at RT for 1 h. The AXL, TYRO3 and MER enzymatic reaction was initiated by transferring 10 μl of enzyme and compound mixture into 10 μl of 1.6 μM TK Substrate-biotin (HTRF® KinEASE-TK kit, Cisbio) and 1400 μM ATP pre-incubated in 50 mM HEPES, pH 7.4, 10 mM MgCl2, 0.01% BSA, 1 mM DTT in a 384-well microplate (Corning™ #3640) at RT, giving the final reaction conditions: 5 nM AXL, 1 nM TYRO3 or MER, 800 nM TK Substrate-biotin and 700 μM ATP in 50 mM HEPES, pH 7.4, 10 mM MgCl2, 0.01% BSA, 1 mM DTT and 1% DMSO with varying concentrations of compounds. Following 2 h incubation at RT, the AXL, TYRO3 and MER enzymatic reaction was stopped by transfer of 10 μl of reaction into 10 μl of detection mix (400 nM Streptavidin-XL665, 200-fold dilution TK Antibody-Cryptate and detection buffer, HTRF® KinEASE-TK kit, Cisbio) in a white 384-well microplate (Perkin Elmer, OptiPlate 384). After 1 h incubation at RT, the plate was put into a plate reader (Evision) to read at 665/620 nm (acceptor/donor) for HTRF. The value of the DMSO blank (MIN inhibition=100% activity) was used as a negative control. The positive control was established by adding 5 μl of enzyme and DMSO mixture into 10 μl of detection mix followed by addition of 5 μl of TK Substrate-biotin and ATP mixture (MAX inhibition=0% activity). To calculate the percent activity, Equation 1 was used. Ratio 665/620 is the value at a given compound concentration: […]

Axl [2] = biological target: T1, Axl; experiment: Axl NanoBRET intracellular kinase assay (intracellular binding, Cell Binding); design: host or cells: HEK-293; conditions: HEK-293 cells transfected with Axl-NanoLuc fusion vector; 0.35 μM K-5 NanoBRET tracer
Procedure: Axl NanoBRET™ intracellular kinase assay (Promega, N2540) was performed according to manufacturer's recommendation. In brief, HEK-293 cells are transiently transfected with Axl-NanoLuc fusion vector (Promega, NV1071), utilizing Fugene HD transfection reagent (Promega, E2311) a day before experiment following manufacturer's recommendation.
The day of the assay, the cells were collected and resuspended in Opti-MEM media (ThermoFisher, 31985070) at 2e5 cells/mL concentration. Testing compounds were serial diluted and dispensed into a white 384 well polystyrene plate at 200 nL in 100% DMSO. 40 μL of resuspended cells is then added per well for a final condition of 8K cells/well with 0.5% DMSO. After one-hour compound pre-incubation at 37° C. and 5% CO2, cells were further incubated with 0.35 μM K-5 NanoBRET tracer for two-hours at 37° C. and 5% CO2. […] of 3× substrate plus Inhibitor solution was prepared according to kits manual and added to the cells followed by a 30 second pulse centrifugation spin. The plate was then immediately read utilizing an Envision (Perkin Elmer) plate reader. The BRET signal is measured by taking the ratio of the emissions reading at 610 nm and 450 nm. Compound binding is based on the decrease BRET signal caused by the displacement of the K-5 tracer. […] IC50 value of compounds was determined by 4-parameter non-linear regression fitting of percent activity in GraphPad Prism software.

Structure (SMILES)	IC50 (Axl [1]) [nM]	IC50 (Axl [2]) [nM]
Cc1cc(-c2n[nH]c3ncc(-c4ccc5c(c4)CCN(C4CC4)CC5)cc23)ccc1C(=O)N1CCNCC1 [Example 119, 3-Cyclopropyl-7-{3-[3-methyl-4-(piperazine-1-carbonyl)phenyl]-1H-pyrazolo[3,4-b]pyridin-5-yl}-2,3,4,5-tetrahydro-1H-3-benzazepine]	< 100	100 to 1000
CC1(N[C@H]2CCOC2)CCc2ccc(-c3cnc4[nH]nc(-c5ccc(S(=O)(=O)C6CC6)cc5)c4c3)cc2CC1 (stereo partly drawn) [Example 115, (3S)-N-(2-{3-[4-(Cyclopropanesulfonyl)phenyl]-1H-pyrazolo[3,4-b]pyridin-5-yl}-7-methyl-6,7,8,9-tetrahydro-5H-benzo[7]annulen-7-yl)oxolan-3-amine]	< 100	100 to 1000
C[C@@H]1CCCN1C1(C)CCc2ccc(-c3cnc4[nH]nc(-c5ccc(C(N)=O)c(F)c5)c4c3)cc2CC1 (stereo partly drawn) [Example 52, 2-Fluoro-4-(5-(7-methyl-7-((R)-2-methylpyrrolidin-1-yl)-6,7,8,9-tetrahydro-5H-benzo[7]annulen-2-yl)-1H-pyrazolo[3,4-b]pyridin-3-yl)benzamide]	< 100	< 100
C[C@@H]1CCCN1C1CCc2ccc(-c3cnc4[nH]nc(-c5ccc(C(C)(C)O)cn5)c4c3)cc2CC1 (stereo partly drawn) [Example 97, 2-[6-(5-{7-[(2R)-2-Methylpyrrolidin-1-yl]-6,7,8,9-tetrahydro-5H-benzo[7]annulen-2-yl}-1H-pyrazolo[3,4-b]pyridin-3-yl)pyridin-3-yl]propan-2-ol]	< 100	> 1000
C[C@H]1CCCN1C1(C)CCc2ccc(-c3cnc4[nH]nc(-c5ccc(S(=O)(=O)C6CC6)cc5)c4c3)cc2CC1 (stereo partly drawn) [Example 5, (2S)-1-(2-{3-[4-(Cyclopropanesulfonyl)phenyl]-1H-pyrazolo[3,4-b]pyridin-5-yl}-7-methyl-6,7,8,9-tetrahydro-5H-benzo[7]annulen-7-yl)-2-methylpyrrolidine]	< 100	< 100
O=S(=O)(c1ccc(-c2n[nH]c3ncc(-c4ccc5c(c4)CCN(C4CCOCC4)CC5)cc23)cc1)C1CC1 [Example 26, 7-{3-[4-(Cyclopropanesulfonyl)phenyl]-1H-pyrazolo[3,4-b]pyridin-5-yl}-3-(oxan-4-yl)-2,3,4,5-tetrahydro-1H-3-benzazepine]	< 100	100 to 1000
CC1(N2CCc3ccc(-c4cnc5[nH]nc(-c6ccc(S(=O)(=O)C7CC7)cc6)c5c4)cc3CC2)CCCC1 [Example 120, 7-{3-[4-(Cyclopropanesulfonyl)phenyl]-1H-pyrazolo[3,4-b]pyridin-5-yl}-3-(1-methylcyclopentyl)-2,3,4,5-tetrahydro-1H-3-benzazepine]	< 100	100 to 1000
C[C@@H]1CCCN1C1(C)CCc2ccc(-c3cnc4[nH]nc(-c5ccc(C(=O)N[C@H]6CCOC6)cc5)c4c3)cc2CC1 (stereo partly drawn) [Example 117, 4-(5-{7-Methyl-7-[(2R)-2-methylpyrrolidin-1-yl]-6,7,8,9-tetrahydro-5H-benzo[7]annulen-2-yl}-1H-pyrazolo[3,4-b]pyridin-3-yl)-N-[(3S)-oxolan-3-yl]benzamide]	< 100	< 100
C[C@@H]1CCCN1[C@H]1CCc2cc(-c3cnc4[nH]nc(-c5ccc(S(=O)(=O)C6CC6)cc5)c4c3)cnc2CC1 [Example 102, (2R)-1-[(7S)-3-{3-[4-(Cyclopropanesulfonyl)phenyl]-1H-pyrazolo[3,4-b]pyridin-5-yl}-5H,6H,7H,8H,9H-cyclohepta[b]pyridin-7-yl]-2-methylpyrrolidine]	100 to 1000	> 1000

Continued, values first:

IC50 (Axl [1]) [nM]	IC50 (Axl [2]) [nM]	Structure (SMILES)
> 1000	> 1000	CC(C)(O)c1ccc(-c2n[nH]c3ncc(-c4ccc5c(c4)CC4CCC(C5)C4N4CCCC4)cc23)cc1Cl (centres unmarked) [Example 61, 2-(2-Chloro-4-{5-[13-(pyrrolidin-1-yl)tricyclo[8.2.1.0^3,8]trideca-3,5,7-trien-5-yl]-1H-pyrazolo[3,4-b]pyridin-3-yl}phenyl)propan-2-ol]
< 100	< 100	CC(C)S(=O)(=O)c1ccc(-c2n[nH]c3ncc(-c4ccc5c(c4)CC[C@@H](N4CCCC4)CC5)cc23)cc1 [Example 42, (S)-3-(4-(Isopropylsulfonyl)phenyl)-5-(7-(pyrrolidin-1-yl)-6,7,8,9-tetrahydro-5H-benzo[7]annulen-2-yl)-1H-pyrazolo[3,4-b]pyridine]
< 100	100 to 1000	CC(C)(O)c1ccc(-c2n[nH]c3ncc(-c4ccc5c(c4)CCN(C4CCCC4)CC5)cc23)cc1C(F)(F)F [Example 16, 2-{4-[5-(3-Cyclopentyl-2,3,4,5-tetrahydro-1H-3-benzazepin-7-yl)-1H-pyrazolo[3,4-b]pyridin-3-yl]-2-(trifluoromethyl)phenyl}propan-2-ol]
< 100	> 1000	COCCN1CCc2ccc(-c3cnc4[nH]nc(-c5ccc(C(C)(C)O)c(Cl)c5)c4c3)cc2CC1 [Example 34, 2-(2-Chloro-4-(5-(3-(2-methoxyethyl)-2,3,4,5-tetrahydro-1H-benzo[d]azepin-7-yl)-1H-pyrazolo[3,4-b]pyridin-3-yl)phenyl)propan-2-ol]
< 100	< 100	C[C@@H]1CCCN1C1CCc2ccc(-c3cnc4[nH]nc(-c5ccc(S(N)(=O)=O)c(Cl)c5)c4c3)cc2CC1 (stereo partly drawn) [Example 94, 2-Chloro-4-(5-(7-((R)-2-methylpyrrolidin-1-yl)-6,7,8,9-tetrahydro-5H-benzo[7]annulen-2-yl)-1H-pyrazolo[3,4-b]pyridin-3-yl)benzenesulfonamide]
< 100	100 to 1000	CC(C)(O)c1ccc(-c2n[nH]c3ncc(-c4ccc5c(c4)CCN(C4CCCC4)CC5)cc23)cn1 [Example 10, 2-{5-[5-(3-Cyclopentyl-2,3,4,5-tetrahydro-1H-3-benzazepin-7-yl)-1H-pyrazolo[3,4-b]pyridin-3-yl]pyridin-2-yl}propan-2-ol]
< 100	100 to 1000	CC(C)(O)c1ccc(-c2n[nH]c3ncc(-c4ccc5c(c4)CCN(C4CCCC4)CC5)cc23)cc1Cl [Example 12, 2-{2-Chloro-4-[5-(3-cyclopentyl-2,3,4,5-tetrahydro-1H-3-benzazepin-7-yl)-1H-pyrazolo[3,4-b]pyridin-3-yl]phenyl}propan-2-ol]
